Test results reported in publication PMC11003488 (Journal of Enzyme Inhibition and Medicinal Chemistry, 2023).

How the values were obtained:
[1] = system: NSCLC cell lines; experiment: NCI-60 SRB growth inhibition, subpanel; format: cell-based, human; conditions: Homo sapiens, read-out: GI50 MG-MID
[2] = system: SF-295; experiment: NCI-60 SRB growth inhibition, one-dose and five-dose; format: cell-based; conditions: Homo sapiens; for GI50: SF-295; for inhibition at 10 µM: SF-295, read-out: percent growth inhibition
[3] = system: OVCAR-5; experiment: as above; format: cell-based; conditions: Homo sapiens; for GI50: OVCAR-5; for inhibition at 10 µM: OVCAR-5, read-out: percent growth inhibition
[4] = system: HL-60(TB); experiment: cells; format: cell-based; conditions: Homo sapiens; for GI50: HL-60; for inhibition at 10 µM: HL-60, read-out: percent growth inhibition
[5] = system: IGROV1; experiment: NCI-60 SRB growth inhibition, one-dose and five-dose; format: cell-based; conditions: Homo sapiens; for GI50: IGROV-1; for inhibition at 10 µM: IGROV-1, read-out: percent growth inhibition
[6] = system: UO-31; experiment: as above; format: cell-based; conditions: Homo sapiens, UO-31
[7] = system: UACC-257; experiment: as above; format: cell-based; conditions: Homo sapiens; for GI50: UACC-257; for inhibition at 10 µM: UACC-257, read-out: percent growth inhibition
[8] = system: Ovarian cancer cell lines; experiment: NCI-60 SRB growth inhibition, subpanel; format: cell-based, human; conditions: Homo sapiens, read-out: GI50 MG-MID
[9] = system: SF-539; experiment: NCI-60 SRB growth inhibition, one-dose and five-dose; format: cell-based; conditions: Homo sapiens; for GI50: SF-539; for inhibition at 10 µM: SF-539, read-out: percent growth inhibition
[10] = system: OVCAR-3; experiment: as above; format: cell-based; conditions: Homo sapiens; for GI50: OVCAR-3; for inhibition at 10 µM: OVCAR-3, read-out: percent growth inhibition
[11] = target: Human VEGFR-2 (Homo sapiens, UniProt P35968); experiment: VEGFR-2 inhibition assay; format: biochemical
[12] = system: HCT-116; experiment: NCI-60 SRB growth inhibition, one-dose and five-dose; format: cell-based; conditions: Homo sapiens; for GI50: HCT-116, HCT-116, five-dose screening; for inhibition at 10 µM: HCT-116, read-out: percent growth inhibition
[13] = system: OVCAR-4; experiment: as above; format: cell-based; conditions: Homo sapiens; for GI50: OVCAR-4; for inhibition at 10 µM: OVCAR-4, read-out: percent growth inhibition
[14] = system: CNS cancer cell lines; experiment: NCI-60 SRB growth inhibition, subpanel; format: cell-based, human; conditions: Homo sapiens, read-out: GI50 MG-MID
[15] = system: Prostate cancer cell lines; experiment: NCI-60 SRB growth inhibition, subpanel; format: cell-based, human; conditions: Homo sapiens, read-out: GI50 MG-MID
[16] = system: MOLT-4; experiment: NCI-60 SRB growth inhibition, one-dose and five-dose; format: cell-based; conditions: Homo sapiens; for GI50: MOLT-4; for inhibition at 10 µM: MOLT-4, read-out: percent growth inhibition
[17] = system: Leukaemia cell lines; experiment: NCI-60 SRB growth inhibition, subpanel; format: cell-based, human; conditions: Homo sapiens, read-out: GI50 MG-MID
[18] = system: Renal cancer cell lines; experiment: NCI-60 SRB growth inhibition, subpanel; format: cell-based, human; conditions: Homo sapiens, read-out: GI50 MG-MID
[19] = system: MDA-MB-231/ATCC; experiment: NCI-60 SRB growth inhibition, one-dose and five-dose; format: cell-based; conditions: Homo sapiens, MDA-MB-231
[20] = system: NCI 60-cell line panel (full panel); experiment: NCI-60 SRB growth inhibition, full panel mean / MG-MID; format: cell-based, human; conditions: for GI50: Homo sapiens, 60 cell, read-out: Full panel GI50 mean; for Full panel Mean GI %: mean over NCI-60 panel, single dose 10 µM
[21] = system: Breast cancer cell lines; experiment: NCI-60 SRB growth inhibition, subpanel; format: cell-based, human; conditions: Homo sapiens, read-out: GI50 MG-MID
[22] = system: HS 578 T; experiment: NCI-60 SRB growth inhibition, one-dose and five-dose; format: cell-based; conditions: Homo sapiens; for inhibition at 10 µM: read-out: percent growth inhibition
[23] = system: HCT-15; experiment: as above; format: cell-based; conditions: Homo sapiens; for GI50: HCT-15; for inhibition at 10 µM: HCT-15, read-out: percent growth inhibition
[24] = system: Melanoma cell lines; experiment: NCI-60 SRB growth inhibition, subpanel; format: cell-based, human; conditions: Homo sapiens, read-out: GI50 MG-MID
[25] = system: SNB-19; experiment: NCI-60 SRB growth inhibition, one-dose and five-dose; format: cell-based; conditions: Homo sapiens; for GI50: SNB-19; for inhibition at 10 µM: SNB-19, read-out: percent growth inhibition
[26] = system: COLO 205; experiment: as above; format: cell-based; conditions: Homo sapiens; for GI50: COLO 205; for inhibition at 10 µM: COLO 205, read-out: percent growth inhibition
[27] = system: WI-38 normal human fibroblast cells; experiment: Cytotoxicity towards normal fibroblasts, safety index; format: cell-based; conditions: WI-38 versus cancer cell lines
[28] = as above; format: cell-based, human; conditions: human, WI-38 normal fibroblast cells
[29] = system: Colon cancer cell lines; experiment: NCI-60 SRB growth inhibition, subpanel; format: cell-based, human; conditions: Homo sapiens, read-out: GI50 MG-MID
[30] = system: RXF 393; experiment: NCI-60 SRB growth inhibition, one-dose and five-dose; format: cell-based; conditions: Homo sapiens; for GI50: RXF 393; for inhibition at 10 µM: RXF 393, read-out: percent growth inhibition

Human VEGFR-2, sequence (P35968 20-1356): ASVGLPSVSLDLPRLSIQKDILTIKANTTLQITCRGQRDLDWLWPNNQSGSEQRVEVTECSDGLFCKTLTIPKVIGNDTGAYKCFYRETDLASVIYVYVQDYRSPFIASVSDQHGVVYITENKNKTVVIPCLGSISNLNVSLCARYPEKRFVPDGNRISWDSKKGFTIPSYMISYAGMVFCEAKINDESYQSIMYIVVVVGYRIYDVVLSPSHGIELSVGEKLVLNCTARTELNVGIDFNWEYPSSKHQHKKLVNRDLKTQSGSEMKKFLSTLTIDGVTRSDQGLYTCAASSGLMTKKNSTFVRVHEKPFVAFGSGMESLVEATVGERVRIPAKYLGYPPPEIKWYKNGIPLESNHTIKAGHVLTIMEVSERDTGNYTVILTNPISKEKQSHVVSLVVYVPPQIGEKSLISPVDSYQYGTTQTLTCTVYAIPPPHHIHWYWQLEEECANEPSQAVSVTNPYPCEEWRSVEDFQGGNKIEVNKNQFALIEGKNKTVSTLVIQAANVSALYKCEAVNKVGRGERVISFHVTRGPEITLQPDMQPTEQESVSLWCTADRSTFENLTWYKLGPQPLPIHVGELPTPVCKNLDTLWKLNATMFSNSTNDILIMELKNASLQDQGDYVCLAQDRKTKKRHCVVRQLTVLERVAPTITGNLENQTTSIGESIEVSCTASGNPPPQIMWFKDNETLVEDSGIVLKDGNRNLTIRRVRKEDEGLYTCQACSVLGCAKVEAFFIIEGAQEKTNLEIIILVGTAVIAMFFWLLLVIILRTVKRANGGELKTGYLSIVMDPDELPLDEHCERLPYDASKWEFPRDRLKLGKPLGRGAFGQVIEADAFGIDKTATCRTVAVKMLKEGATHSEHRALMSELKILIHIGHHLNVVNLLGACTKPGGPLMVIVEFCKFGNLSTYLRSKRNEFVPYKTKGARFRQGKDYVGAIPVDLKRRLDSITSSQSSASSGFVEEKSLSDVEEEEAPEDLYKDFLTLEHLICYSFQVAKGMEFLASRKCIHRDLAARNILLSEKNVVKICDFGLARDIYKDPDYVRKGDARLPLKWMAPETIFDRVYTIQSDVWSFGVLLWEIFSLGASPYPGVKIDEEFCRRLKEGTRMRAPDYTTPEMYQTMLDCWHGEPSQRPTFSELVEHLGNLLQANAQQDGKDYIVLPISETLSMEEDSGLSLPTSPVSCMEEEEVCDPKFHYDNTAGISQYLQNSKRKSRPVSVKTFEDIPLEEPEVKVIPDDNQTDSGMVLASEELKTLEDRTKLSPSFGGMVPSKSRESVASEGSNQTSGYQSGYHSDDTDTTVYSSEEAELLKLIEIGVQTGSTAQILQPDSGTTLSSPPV

With CC(=O)Nc1ccc(/C=C/C(=O)c2cccc(NCc3csc4ccccc34)c2)cc1 [Compound 5i, (E)-N-(4–(3-(3-((benzo[b]thiophen-3-ylmethyl)amino)phenyl)-3-oxoprop-1-en-1-yl)phenyl) acetamide] the GI50 [1] was 11.2 µM, the GI50 [2] was 11.9 µM and the inhibition at 10 µM [2] was 73.1%. For the same molecule, the GI50 [3] was 13 µM, the inhibition at 10 µM [3] was 30.4% and the GI50 [4] was 3.53 µM. For the same molecule, the inhibition at 10 µM [4] was 123%, the GI50 [5] was 4.18 µM and the inhibition at 10 µM [5] was 56.9%. For the same molecule, the GI50 [6] was 5.16 µM, the GI50 [7] was 14.2 µM and the inhibition at 10 µM [7] was 50.6%. The GI50 [8] was 8.28 µM, the GI50 [9] was 2.74 µM and the inhibition at 10 µM [9] was 171%. The GI50 [10] was 3.47 µM, the inhibition at 10 µM [10] was 133% and the IC50 [11] was 0.66 ± 0.018 µM. The GI50 [12] was 2.02 µM, the inhibition at 10 µM [12] was 180% and the GI50 [13] was 9.52 µM. It also gave an inhibition at 10 µM [13] of 64.8%, a GI50 [14] of 6.12 µM and a GI50 [15] of 5.01 µM. The GI50 [16] was 2.73 µM, the inhibition at 10 µM [16] was 111% and the GI50 [17] was 2.93 µM. It also gave a GI50 [18] of 11.3 µM, a GI50 [19] of 3.42 µM and a GI50 [20] of 7.06 µM. The “Full panel Mean GI %” value [20] was 82.81%, the GI50 [21] was 3.79 µM and the GI50 [22] was 4.49 µM. The inhibition at 10 µM [22] was 68.5%, the GI50 [23] was 2.1 µM and the inhibition at 10 µM [23] was 142%. It also gave a GI50 [24] of 8.14 µM, a GI50 [25] of 3.76 µM and an inhibition at 10 µM [25] of 98%. For the same molecule, the GI50 [26] was 17 µM, the inhibition at 10 µM [26] was 19.8% and the Safety index [27] was over 1. For the same molecule, the GI50 at 48 h [28] was over 100 µM, the GI50 [29] was 6.66 µM and the GI50 [30] was 10 µM. For the same molecule, the inhibition at 10 µM [30] was 93.2%.

Work on CC(=O)Nc1ccc(/C=C/C(=O)c2cccc(NCc3ccc(CO)cc3)c2)cc1 [Compound 5j, (E)-N-(4–(3-(3-((4-(hydroxymethyl)benzyl)amino)phenyl)-3-oxoprop-1-en-1-yl)phenyl) acetamide] yielded a GI50 [1] of 13.9 µM, a GI50 [2] of 12.4 µM and an inhibition at 10 µM [2] of 79.5%. The GI50 [3] was 12.6 µM, the inhibition at 10 µM [3] was 74% and the GI50 [4] was 11.6 µM. The inhibition at 10 µM [4] was 138%, the GI50 [5] was 6.71 µM and the inhibition at 10 µM [5] was 119%. It also gave a GI50 [6] of 10.7 µM, a GI50 [7] of 11.7 µM and an inhibition at 10 µM [7] of 135%. It also gave a GI50 [8] of 12.4 µM, a GI50 [9] of 7.37 µM and an inhibition at 10 µM [9] of 181%. It also gave a GI50 [10] of 4.63 µM, an inhibition at 10 µM [10] of 138% and an IC50 [11] of 0.82 ± 0.016 µM. It also gave a GI50 [12] of 3.35 µM, an inhibition at 10 µM [12] of 193% and a GI50 [13] of 14.8 µM. The inhibition at 10 µM [13] was 75.5%, the GI50 [14] was 10.1 µM and the GI50 [15] was 8.67 µM. For the same molecule, the GI50 [16] was 2.85 µM, the inhibition at 10 µM [16] was 120% and the GI50 [17] was 5.36 µM. For the same molecule, the GI50 [18] was 13.3 µM, the GI50 [19] was 6.79 µM and the GI50 [20] was 10.3 µM. The “Full panel Mean GI %” value [20] was 120.44%, the GI50 [21] was 10.1 µM and the GI50 [22] was 18.9 µM. The inhibition at 10 µM [22] was 57.9%, the GI50 [23] was 4.63 µM and the inhibition at 10 µM [23] was 140%. It also gave a GI50 [24] of 11.5 µM, a GI50 [25] of 10.1 µM and an inhibition at 10 µM [25] of 114%. The GI50 [26] was 16 µM, the inhibition at 10 µM [26] was 150% and the Safety index [27] was over 1. The GI50 at 48 h [28] was over 100 µM, the GI50 [29] was 7.35 µM and the GI50 [30] was 11.8 µM. The inhibition at 10 µM [30] was 190%.
